In patent US8357506B2, “Method of identifying improved conjugates of biologically active compounds” (priority 2002, dated 2013):

How the values were obtained:
white blood cells = experiment: Immune cell selective uptake (immune selectivity ratio) in blood cell / buffy coat preparations; assay type: cell-based; conditions: fluorescent compounds, FIG. 1
Experimental: Freshly drawn heparinised blood or buffy coat preparations are used for the determination of immune cell partition ratios. Buffy coat preparations are preferred. These may be obtained from donor blood by simple centrifugation of whole blood (4795 g for 10 minutes). Following centrifugation, plasma is collected from the surface, after which immune cells are expressed from the donor bags along with the erythrocytes lying immediately below the leukocyte layer. This ensures high yields and a sufficient population of erythrocytes for partition. 5 ml of the resulting cell suspension are dispensed into T25 culture flasks. Substrates are added to a final concentration between 1 and 10 μM and the suspensions incubated at 37° C., in a 5% CO2 atmosphere. For analysis of uptake kinetics, samples are withdrawn at 0, 2, 5, 10, 30, 60, 90, 180, or 240 min after substrate addition. For screening purposes, samples are taken at 0 and 120 minutes. […]
Uptake of fluorescent compounds is monitored using fluorescence microscopy. Excitation and emission wavelengths depend of the fluorescence label in use. […]
Cell lysates are analysed using a HP 1100 HPLC System (Agilent Technologies, Waldbronn, Germany) with a Kromasil 3.5μ […], 50×2.0 mm column and guard cartridge system (both, Phenomenex, Aschaffenburg, Germany) run at 30° C. […]
Masses are monitored according to the known or expected M/Z ratios. […]

E. coli = experiment: Antibiotic activity testing (TC50, dilution assay, turbidity); assay type: cell-based, E. coli (DH5α)
Experimental: The TC50 or MIC procedure for antibiotic sensitivity testing involves an antibiotic dilution assay, which can be performed in microtitre plates. A series of twofold dilutions of each antibiotic are made in the wells, and then all wells are inoculated with a standard amount of the same test organism. After incubation, growth in the presence of the various antibiotics is observed by measuring turbidity.
Bacteria: B. pumilus and E. coli (DH5α)
Bacterial cultures are initiated from the plates for 2 to 3 weeks. After this time period bacteria are streaked out on new plates from the backups stored at −80° C. Due to the lack of resistance of the bacteria, new cultures are not to be initiated from an old plate or any liquid cultures derived from old plates.
Growth medium (GM) (per liter): 10 g Bacto-tryptone, 5 g Bacto-yeast extract, 6 g HEPES (25 mM), 5.4 g NaCl, pH 7.3
Compound stocks 10 or 100 mM in DMSO stored at −20° C.
• 1. Grow B. pumilus from an LB agar plate in a flask (max. 10% volume) up to about 50 ml in growth medium (GM) • 2. Dilute overnight suspension 1:10 in GM • 3. Determine OD600 of diluted bacterial suspension • 4. Dilute bacterial suspension in GM to an OD600 of 0.03-0.04. (6 ml/plate) • 5. Add 200 μl GM to the outer wells (Row A, Row H, Column 1, Column 12) • 6. Add 100 μl GM to each well starting from C2, row 3. • 7. […]
8.3. […] Determine OD600 on plate reader.

Structure (SMILES)	uptake rate (white blood cells)	TC50 in E. coli (E. coli)
COc1cc(C)c(/C(=C\C(C)=O)CC(N)C(=O)O)cc1OC (centres unmarked) [Compound 4]	rapid	–
CCC1OC(=O)C(C)C(OC2CC(C)(OC)C(O)C(C)O2)C(C)C(OC2OC(C)CC(NC)C2O)C(C)(O)CC(C)CN(C)C(C)C(O)C1(C)O (centres unmarked) [Compound 96]	–	28 µM
